The structures appear in SMILES notation.

The assay deals with T1, VASP (vasodilator-stimulated phosphoprotein) (Homo sapiens, UniProt P50552).
T1 construct: recombinant VASP expressed in E. coli Rosetta (IPTG, 18 °C), as previously described
The experiment in a line: intrinsic tryptophan fluorescence quenching titration (excitation […] nm). It is filed as binding. The following applies: 25 °C; 0.4 μM VASP; berberine 0 to 3.4 μM.

T1 sequence (P50552 2-380): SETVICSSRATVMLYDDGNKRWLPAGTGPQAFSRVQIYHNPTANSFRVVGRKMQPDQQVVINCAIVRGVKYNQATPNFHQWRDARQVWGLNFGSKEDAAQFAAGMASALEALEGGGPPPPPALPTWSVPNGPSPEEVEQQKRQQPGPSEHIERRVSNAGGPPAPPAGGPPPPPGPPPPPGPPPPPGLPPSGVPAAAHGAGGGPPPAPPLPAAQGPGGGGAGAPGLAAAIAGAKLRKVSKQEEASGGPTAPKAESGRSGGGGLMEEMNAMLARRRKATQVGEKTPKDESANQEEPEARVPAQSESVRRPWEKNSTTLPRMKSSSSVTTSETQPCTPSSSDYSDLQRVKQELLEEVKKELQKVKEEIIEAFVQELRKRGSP

The molecule `COc1ccc2cc3[n+](cc2c1OC)CCc1cc2c(cc1-3)OCO2` [berberine] yielded a Kd of 100 nM.
